Reference: patent publication US9126959B2, “PPAR-sparing thiazolidinedione salts for the treatment of metabolic diseases” (Metabolic Solutions Development Company, LLC, priority 2009, dated 2015)
Where a name gives a salt, the structure may show the parent alone.

Key:
[1] = Moisture sorption analysis of metal salts of Compound B; type: physicochemical; conditions: 25° C.
Protocol: Metal salts of compounds of Formula I were characterized using XRPD, DSC, thermogravimetry, and moisture sorption analyses. Note that XRPD patterns described below, and provided in FIGS. 1 and 5 were obtained using a Bruker Model D8 X-Ray Diffractometer. Thermogravimetric analyses, DSC analyses, and moisture sorption analyses were performed using a TA Instruments Universal V4.4A instrument.
FIG. 1 provides the XRPD pattern of a sample of a sodium salt of Compound B Referring to FIGS. 2-4, thermogravimetric, DSC, and moisture sorption analyses were performed on a sodium salt of Compound B. Thermogravimetric analysis was conducted using 7.5450 mg of the sodium salt and an instrument setting of 10° C./min. The DSC analysis was performed using a 2.00 mg sample of the sodium salt and an instrument setting of 10° C./min. The moisture sorption analysis was performed on 14.07 mg of sodium salt over a relative humidity range of 5% to 95% at 25° C. with 180 minute max. equilibration time and data sampling every 2 minutes.
FIG. 5 provides the XRPD pattern of a sample of a potassium salt of Compound B Referring to FIGS. 6-8, thermogravimetric, DSC, and moisture sorption analyses were performed on a potassium salt of Compound B. Thermogravimetric analysis was conducted using 15.9290 mg of the potassium salt and an instrument setting of 10° C./min. […]

[2] = AUC of compound related materials after oral dosing of Compound B free acid or its Na or K salt; type: in vivo; conditions: cynomolgus monkeys, 250 mg free acid equivalents, formulated tablets; compared with free acid
Protocol: Referring to FIG. 10, the area under the curve (AUC) of compound related materials was compared following dosing of 250 mg of Compound B as powder in capsules of free acid (PIC), formulated tablets of micronized free acid, or formulated tablets of the Na or K salt of Compound B given at the same free acid equivalents. (N=4 cynomolgus monkeys). The formulated, compressed tablet also contained in each case approximately 40.5% lactose, 16.8% microcrystalline cellulose, 1.9% Croscarmellose sodium, 0.5% colloidal silicon dioxide, and 0.9% magnesium stearate.

diabetic KKAy mouse = assay: Blood glucose lowering in the diabetic KKAy mouse; type: in vivo; conditions: diabetic KKAy mice, gavage once daily, measured after 4 daily doses
Protocol: In these experiments, free base or sodium salt was given to diabetic KKAy mice (N=6) and blood glucose was measured after 4 days of daily treatment at the doses indicated. KKAy mice, 8-12 weeks of age, were given the doses of the compounds according to the dosages on the X axis of FIG. 11. The compounds were given by gavage once daily at 10 mg/kg. On the fifth day (after 4 daily doses at the levels show) a blood sample was taken to measure plasma glucose.

[3] = Bioavailability of sodium salt of Compound A, oral capsule versus iv injection, crossover design; type: in vivo; conditions: male cynomolgus monkeys, oral gavage, 90 mg free base equivalents in gelatin capsules; compared with free base
Protocol: The monkeys fasted overnight and were dosed by oral gavage washed down with 10 ml tap water. Blood samples were taken at 0.25, 0.5, 1, 2, 3, 4, 6, 9, 12, 24, and 48 hours after a single dosage was administered and assayed for drug related materials with a LCMS assay using an internal standard. 90 mg of drug was put in 00 gelatin capsules containing 90 mg of free base equivalents. This was compared to an iv injection of 2 ml/kg and 45 mg of free base solution in 50% hydroxypropyl b-cyclodextran. The absolute availability versus an iv injection was determined for both parent compound and major metabolite.

absolute availability versus an iv injection, major metabolite [3]	absolute availability versus an iv injection, parent compound [3]	Structure (SMILES)	water uptake ([1]; relative humidity increased from ~5% to ~95% RH) [wt %]	bioavailability (AUC of compound related materials) [2]	lowering blood glucose (plasma glucose) (diabetic KKAy mouse)	moisture uptake ([1]; between ~6% and ~95% RH) [wt %]
–	–	COc1cccc(C(=O)COc2ccc(CC3SC(=O)[N-]C3=O)cc2)c1.[K+] (stereo not shown) [potassium salt of Compound B, Potassium 5-{4-[2-(3-methoxyphenyl)-2-oxoethoxy]benzyl}-2,4-dioxo-1,3-thiazolidin-3-ide]	~21.1	significantly higher bioavailability	–	–
significantly higher bioavailability	significantly higher bioavailability	CCc1ccc(C(=O)COc2ccc(CC3SC(=O)NC3=O)cc2)nc1 (stereo not shown) [sodium salt of Compound A, 5-(4-(2-(5-ethylpyridin-2-yl)-2-oxoethoxy)benzyl)-1,3-thiazolidine-2,4-dione]	–	–	excellent dose response for lowering blood glucose	–
–	–	COc1cccc(C(=O)COc2ccc(CC3SC(=O)[N-]C3=O)cc2)c1.[Na+] (stereo not shown) [sodium salt of Compound B, Sodium 5-{4-[2-(3-methoxyphenyl)-2-oxoethoxy]benzyl}-2,4-dioxo-1,3-thiazolidin-3-ide]	–	significantly higher bioavailability	–	~10.0
